According to US11419955B2, “Multimodal silica-based nanoparticles” (Sloan-Kettering Institute for Cancer Research, priority 2009, dated 2022):

Experiments:
FAK pathway = assay: Western blot of FAK pathway signaling in M21 cells; type: cell-based, human; details: M21 cells exposed to 100 nM cRGDY-PEG-C dots
Experimental: To determine whether […] integrin-binding cRGDY-PEG-C-dots modulates the activity of these pathways, we treated serum-deprived (0.2% FCS) M21 cells with 100 nM of cRGDY-PEG-C-dots for 2 hrs at 37° C.; serum-deprived cells treated with 0.2% FCS alone served as controls. […] These findings, depicted graphically as normalized intensity ratios, have been expressed relative to their respective total protein levels, and normalized to corresponding values measured under control conditions (FIG. 40C).
M21 cells (1×10^6 cells/six wells plate) were grown in six wells coated with collagen (10 mg/ml), and made quiescent by growing under serum-deprived conditions. The medium was then changed to 0.2% FCS, and different concentrations (25-400 nM) of cRGDY-PEG-C-dots were added (37° C., 0.5-8 hours). […] Protein concentrations were determined by the bicinchoninic acid assay (BCA, Thermo Scientific, Rockford, Ill.). […]
In order to quantify the differences in the size and intensity between Western blot bands, we performed densitometry of phosphorylated and total protein intermediates using Photoshop CS2 (Adobe, San Jose, Calif.). […]

HUVEC cells = assay: Migration assay, HUVEC cells; type: cell-based, human; details: 400 nM particles, 24 hour, before and after addition of inhibitor
Experimental: M21 cells: M21 cells were seeded (6×10^4 cells/well) using a migration kit (Oris™ Collagen I coated plate, […] TEC). Twenty-four hours after seeding the cells, stoppers in the plate were removed. Fresh culture media (100 μl) supplemented with 0.2% FBS was introduced and cRGDY-PEG-C-dots were added at several concentrations: 25, 100 and 400 nM. Every 24 hours thereafter, media was replaced, along with new particles, over a 72 hr time interval. Prior to incubating the plate at 37° C. overnight, time zero images were captured by the Axiovert 200M microscope (Carl Zeiss) using a 5× (0.15 NA) objective and using a scan slide module in the Metamorph software (molecular devices, PA). Serial microscopy was then performed and images captured every 24 hrs for a total of 96 hours post-incubation. The data were analyzed by using ImageJ software. […]
Phase contrast images captured for migration studies were analyzed using ImageJ 1.45s (National Institutes of Health, rsbweb.nih.gov/ij/) in order to quantify the extent of cell migration (i.e., area closure) for M21 cells and HUVECs. […] The enclosed area for each image was measured (pixels) and used to calculate percent closure relative to time zero (following particle addition and media replacement) as follows: difference in area at a given time point (24, 48, 72 or 96 hr) and at time zero divided by the same area at time zero multiplied by 100. […]

[1] = tested on: melanoma nodal metastases; parameters: species or system Sinclair miniature swine; details: in vivo
Experimental: Spontaneous melanoma Sinclair miniature swine (10-12 kg, Sinclair Research Center, MO) were injected intravenously with 5 mCi ^18F-fluoro-deoxyglucose (^18F-FDG) for whole-body screening of nodal and/or organ metastases. Miniswine underwent 1-hr dynamic ^18F-FDG PET whole body PET scan using a clinical PET scanner 40 minutes after injection to screen for metastatic disease, followed by CT scan acquisition for anatomic localization. […]
Miniswine were taken to the operating room for identification of nodes. Optical fluorescence imaging was performed using large field-of-view near infrared fluorescence camera system, smaller field-of-view modified endoscope, and a modified stereomacroscope for obtaining higher resolution fluorescence images within the exposed surgical bed. […]
The primary melanoma skin lesion was excised, and an incision made to allow access to the sentinel node(s). […] Specimens were sent for histological assessment for metastases and optical confocal microscopy to confirm the presence of both malignancy and nanoparticle fluorescence.
Following harvest of the sentinel nodes, the entire lymph node basin was excised and further evaluated using histological methods (with immunohistochemical markers for melanoma as needed), fluorescence microscopy, and the hand-held PET probe for correlative purposes. […]

[2] = Montet et al. 2006; cited from earlier work

## CS(=O)(=O)c1cccc(CNc2nc(Nc3ccc4c(c3)CCC(=O)N4)ncc2C(F)(F)F)c1 [PF-573228]
FAK pathway; 250, 500 nM inhibitor
  Inhibition of MEK or Erk phosphorylation: observed only at the higher inhibitor concentration
FAK pathway; two inhibitor concentrations (250, 500 nM)
  phosphorylation of FAK on Tyr397 and Src: inhibition of the phosphorylation of FAK on Tyr^397 and Src
HUVEC cells
  Percentage change in mean areas of closure relative to controls: +3%

## ^18F-fluorodeoxyglucose [^18F-FDG]
[1]
  discrimination of metastatic disease from inflammation: failed to detect metastatic disease, while identifying inflammatory and other metabolically active sites

## cRGD
[2]
  published blood T1/2 / blood residence half-time: about 13 minutes
